# In patent publication US9271978B2 (Zenith Epigenetics Corp., priority 2012, dated 2016):
# Key:
# [1] = target: T1, Brd4 bromodomain 1 (BRD4(1)) (Homo sapiens, UniProt O60885); test: Inhibition of tetra-acetylated histone H4 binding to Brd4 bromodomain 1 (TR-FRET); set-up: key: Active: Compounds with an IC50 value less than 30 μM were deemed to be active.; Not Active: Compounds with an IC50 value less than 30 μM were deemed to be active; details: tetra-acetylated histone H4 peptide, active = IC50 <30 μM
# T1 construct: Illustrative results with the first bromodomain of Brd4; made in house; host or cells: E. coli BL21 (DE3)
# In short: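 N-terminally His-tagged bromodomains (200 nM), expressed in E. coli, were incubated with biotinylated tetra-acetylated histone H4 peptide (25-50 nM), Eu-cryptate streptavidin and XL665 anti-His antibody in HEPES pH 7.4 buffer with KF, 0.2% DMSO, 2 h at room temperature. Inhibition read as decreased 665/620 nm TR-FRET; IC50 from dose-response curves.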
# c-myc = test: Inhibition of c-myc expression in MV4-11 cells (mRNA, real-time PCR); assay type: cell-based; set-up: key: Active: Compounds with an IC50 value less than 30 μM were deemed to be active.; Not Active: Compounds with an IC50 value less than 30 μM were deemed to be active; details: Human AML MV4-11 cells, 3 h incubation
# In short: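 MV4-11 cells (2.5×10^4) treated with compound or 0.1% DMSO for 3 h at 37 °C. c-myc mRNA measured by RT real-time PCR duplexed with cyclophilin. IC50 from dose–response curve.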
# [2] = system: human AML MV-4-11 (CRL-9591) cells; test: Inhibition of cell proliferation in MV4-11 cells; assay type: cell-based; set-up: key: Active: Compounds with an IC50 value less than 30 μM were deemed to be active.; Not Active: Compounds with an IC50 value less than 30 μM were deemed to be active; details: human AML MV-4-11 cells, 72 h; active = IC50 <30 μM
# In short: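 Exponentially growing MV-4-11 cells (5×10^4/well) were treated immediately with two-fold dilutions of compound from 30 μM to 0.2 μM, in triplicate, for 72 h at 37° C, 5% CO2. Viability was measured by MTS absorbance at 490 nm after 3–4 h. Proliferation relative to DMSO after blank correction gave IC50.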
# hIL-6 mRNA = test: Inhibition of hIL-6 mRNA transcription in U937 cells; assay type: cell-based, human; set-up: key: Active: Compounds with an IC50 value less than 30 μM were deemed to be active.; Not Active: Compounds with an IC50 value less than 30 μM were deemed to be active; details: LPS stimulation, active = IC50 <30 μM
# In short: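 U937 cells differentiated 3 days with 60 ng/mL PMA, pretreated 1 h with compound, then stimulated with 1 ug/mL E. coli LPS for 3 h at 37° C. hIL-6 mRNA quantified by one-step qRT-PCR, Ct normalized to internal control, expressed as fold induction relative to control.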
# ApoA-I mRNA = test: Up-regulation of hApoA-1 mRNA transcription in Huh7 cells; assay type: cell-based, human; set-up: key: Active: Compounds with an EC170 value less than 30 μM were deemed to be active; details: 48 h treatment, ApoA-I mRNA by real-time PCR, Active = EC170 less than 30 μM
# Experimental: In this example, ApoA-I mRNA in tissue culture cells was quantitated to measure the transcriptional up-regulation of ApoA-I when treated with a compound of the present disclosure.
# Huh7 cells (2.5×10^5 per well) were plated in a 96-well plate using 100 μL DMEM per well, (Gibco DMEM supplemented with penicillin/streptomycin and 10% FBS), 24 h before the addition of the compound of interest. After 48 h treatment, the spent media was removed from the Huh-7 cells and placed on ice (for immediate use) or at −80° C. (for future use) with the “LDH cytotoxicity assay Kit II” from Abcam. The cells remaining in the plate were rinsed with 100 μL PBS.
# Then 85 μL of cell lysis solution was added to each well and incubated for 5-10 min at room temperature, to allow for complete cell lysis and detachment. mRNA was then prepared using the “mRNA Catcher PLUS plate” from Life Technologies, according to the protocol supplied. After the last wash, as much wash buffer as possible was aspirated without allowing the wells to dry. Elution Buffer (E3, 80 μL) was then added to each well. mRNA was then eluted by incubating the mRNA Catcher PLUS plate with Elution Buffer for 5 min at 68° C., and then 1 min at 4° C. Catcher plates with mRNA eluted were kept on ice for use or stored at −80° C.
# The eluted mRNA isolated was then used in a one-step real-time PCR reaction, using components of the Ultra Sense Kit together with Life Technologies primer-probe mixes. Real-time PCR data was analyzed, using the Ct values, to determine the fold induction of each unknown sample, relative to the control (that is, relative to the control for each independent DMSO concentration).
# Compounds with an EC170 value less than 30 μM were deemed to be active.
SMILES,FRET activity (IC50 <30 μM) BRD4(1) [1],c-myc activity (IC50 <30 μM) (c-myc),Cell Proliferation activity (IC50 <30 μM) [2],IL-6 activity (IC50 <30 μM) (hIL-6 mRNA),ApoA-1 activity (EC170 <30 μM) (ApoA-I mRNA)
"Cc1noc(C)c1-c1cc(NC(C)C)c(=O)n(Cc2ccccc2)c1 [Example 192, 1-benzyl-5-(3,5-dimethylisoxazol-4-yl)-3-(isopropylamino)pyridin-2(1H)-one]",Active,Active,Active,Active,Active
"Cc1noc(C)c1-c1cc(Nc2ccccn2)c(=O)n(Cc2ccccc2)c1 [Example 193, 1-benzyl-5-(3,5-dimethylisoxazol-4-yl)-3-(pyridin-2-ylamino)pyridin-2(1H)-one]",Not Active,Not Active,Active,Active,Active
"Cc1noc(C)c1-c1cc(Nc2cccnc2)c(=O)n(Cc2ccccc2)c1 [Example 194, 1-benzyl-5-(3,5-dimethylisoxazol-4-yl)-3-(pyridin-3-ylamino)pyridin-2(1H)-one]",Active,Active,Active,Active,Active
"Cc1noc(C)c1-c1cc(C#N)c(=O)n(Cc2ccccc2)c1 [Example 198, 1-Benzyl-5-(3,5-dimethylisoxazol-4-yl)-2-oxo-1,2-dihydropyridine-3-carbonitrile]",Active,Not Active,Not Active,Not Active,Active
"Cc1noc(C)c1-c1cc(N)c(=O)n(Cc2ccc(Cl)c(F)c2)c1 [Example 203, 3-amino-1-(4-chloro-3-fluorobenzyl)-5-(3,5-dimethylisoxazol-4-yl)pyridin-2(1H)-one]",Active,Active,Active,Active,Active
"Cc1onc(CO)c1-c1cc(N)c(=O)n(Cc2ccc(Cl)cc2)c1 [Example 205, 3-Amino-1-(4-chlorobenzyl)-5-(3-(hydroxymethyl)-5-methylisoxazol-4-yl)pyridin-2(1H)-one]",Active,Active,Active,Active,Active
"Cc1noc(C)c1-c1cc(N)c(=O)n(Cc2ccc(Cl)cc2F)c1 [Example 206, 3-amino-1-(4-chloro-2-fluorobenzyl)-5-(3,5-dimethylisoxazol-4-yl)pyridin-2(1H)-one]",Active,Active,Active,Active,Active
"Cc1noc(C)c1-c1cc(N)c(=O)n(Cc2ccc(F)cc2Cl)c1 [Example 207, 3-amino-1-(2-chloro-4-fluorobenzyl)-5-(3,5-dimethylisoxazol-4-yl)pyridin-2(1H)-one]",Active,Active,Active,Active,Active
"Cc1noc(C)c1-c1cc(NC2CCCC2)c(=O)n(Cc2ccccc2)c1 [Example 208, 1-benzyl-3-(cyclopentylamino)-5-(3,5-dimethylisoxazol-4-yl)pyridin-2(1H)-one]",Active,Active,Active,Active,Active
"Cc1noc(C)c1-c1cc(O)c(=O)n(Cc2ccccc2)c1 [Example 209, 1-benzyl-5-(3,5-dimethylisoxazol-4-yl)-3-hydroxypyridin-2(1H)-one]",Active,Active,Active,Active,Active
"COc1cc(-c2c(C)noc2C)cn(Cc2ccccc2)c1=O [Example 210, 1-benzyl-5-(3,5-dimethylisoxazol-4-yl)-3-methoxypyridin-2(1H)-one]",Active,Active,Active,Active,Active
"Cc1noc(C)c1-c1cc(N)c(=O)n(Cc2ccc(F)c(F)c2)c1 [Example 211, 3-amino-1-(3,4-difluorobenzyl)-5-(3,5-dimethylisoxazol-4-yl)pyridin-2(1H)-one]",Active,Active,Active,Active,Active
"Cc1noc(C)c1-c1cc(N)c(=O)n(Cc2ccc(F)c(Cl)c2)c1 [Example 212, 3-amino-1-(3-chloro-4-fluorobenzyl)-5-(3,5-dimethylisoxazol-4-yl)pyridin-2(1H)-one]",Active,Active,Active,Active,Active
"Cc1noc(C)c1-c1cc(N)c(=O)n(Cc2ccc(Cl)c(Cl)c2)c1 [Example 213, 3-amino-1-(3,4-dichlorobenzyl)-5-(3,5-dimethylisoxazol-4-yl)pyridin-2(1H)-one]",Active,Active,Active,Active,Active
"Cc1noc(C)c1-c1cc(N)c(=O)n(Cc2nccs2)c1 [Example 215, 3-amino-5-(3,5-dimethylisoxazol-4-yl)-1-(thiazol-2-ylmethyl)pyridin-2(1H)-one]",Active,Active,Active,Active,Active
